Like-named read-outs stand apart in the source and are kept apart here.
What was measured:
[1] = test system: SaR4: Meticillin-Resistant Staphylococcus aureus; experiment: Antibiogram, MIC by the VITEK 2 system; assay type: cell-based; settings: SaR4; for MIC: Staphylococcus aureus, read-out: MIC
Experimental: (§1) The bacterial and antibiogramidentification is carried out by the VITEK 2 system (bioMérieux) and by the disk diffusion technique

[2] = test system: SaR3: Meticillin-Resistant Staphylococcus aureus; experiment: Antibiogram by the disk diffusion technique; assay type: cell-based
Experimental: as §1

[3] = test system: MRSA strain having a resistance to the aminoglycosides and fluoroquinolones (SaR3); experiment: MIC of the compounds used alone, microdilution in a liquid medium (CLSI); assay type: cell-based, Staphylococcus aureus; settings: Staphylococcus aureus, MRSA; antibiotic alone (second value of cell); SaR3; read-out: MIC
Description: (§2) The MICs of the antibiotics were previously defined for each strain, by the method of microdilution in a liquid medium (CLSI (Clinical and Laboratory Standards Institute), 2003).

[4] = test system: MRSA strain without associated resistance (SaR1); experiment: as above; assay type: cell-based, Staphylococcus aureus; settings: Staphylococcus aureus, MRSA; antibiotic alone (second value of cell); SaR1; read-out: MIC
Description: as §2

[5] = as above; assay type: cell-based, Staphylococcus aureus; settings: Staphylococcus aureus, MRSA; antibiotic alone (second value of cell); SaR4; read-out: MIC
Description: as §2

[6] = test system: Escherichia coli, Staphylococcus aureus and Pseudomonas aeruginosa strains; experiment: Chessboard technique, summary statements over all strains and combinations tested; assay type: cell-based; settings: strain not stated
Description: 1.3. Procedure: Chessboard Technique
The same procedure is followed for the Cx1. […] Thus 64 ATB/Cx1 combinations are obtained.
The FIC (Fractional Inhibitory Concentration Index) value is defined by the following formula: […]
When FIC≦0.5, there is a synergistic effect between antibiotic A and antibiotic B.
When 0.5<FIC≦1, there is an additive effect between antibiotic A and antibiotic B.
When 1<FIC≦4, there is an indifferent effect between antibiotic A and antibiotic B.
When FIC>4, there is an antagonistic effect between antibiotic A and antibiotic B.
For each strain and each antibiotic/Cx1 combination, the experiments were repeated a minimum of 3 times.

[7] = test system: SaR1: Meticillin-Resistant Staphylococcus aureus without Associated Resistance; experiment: Antibiogram, MIC by the VITEK 2 system; assay type: cell-based; settings: SaR1
Experimental: (§3) The bacterial and antibiogramidentification is carried out by the VITEK 2 system (bioMérieux)

[8] = test system: SaR1: Meticillin-Resistant Staphylococcus aureus without Associated Resistance; experiment: Antibiogram, inhibition diameter (Table D1); assay type: cell-based
Experimental: as §3

[9] = test system: Staphylococcus aureus strain ATCC 29213 (wild type); experiment: MIC of the compounds used alone, microdilution in a liquid medium (CLSI); assay type: cell-based; settings: Staphylococcus aureus, ATCC29213; antibiotic alone (second value of cell); S. aureus ATCC 29213; read-out: Initial MICs
Description: as §2

- MIC ([1]; Table F1): ≤ 1 µg/mL
- MIC ([1]; Table F2, MIC): ≤ 1 µg/mL
- MIC [3]: 0.25 µg/mL
- MIC [4]: 0.5 µg/mL
- MIC [5]: 4 µg/mL
- MIC mg/L ([7]; Table D2): ≦0.5 mg/L
- MIC ([7]; Staphylococcus aureus, Table D1, read-out: MIC): ≤ 0.5 µg/mL
- MIC [9]: 2 µg/mL
Structure (SMILES): CC(=O)O[C@H]1C[C@@]2(C)[C@@H](C[C@@H](O)[C@H]3[C@@]4(C)CC[C@@H](O)[C@@H](C)[C@@H]4CC[C@@]32C)/C1=C(\CCC=C(C)C)C(=O)O [Fusidic acid]
- Results ([1]; Table F1, MIC): Susceptible
- CA-SFM Interpretation ([1]; from MIC, Cc CA-SFM 2011): Susceptible
- EUCAST Interpretation ([1]; from MIC, Cc EUCAST 2011): Susceptible
- CA-SFM Interpretation ([2]; Cd CA-SFM 2011): Susceptible
- EUCAST Interpretation ([2]; Cd EUCAST 2011): Susceptible
- Diameter ([2]; Table E1): 29 mm
- Results ([2]; Table E1, against Dmin Dmax): Susceptible
- diameter in mm ([2]; Table E2): 29 mm
- interaction between the antibiotic and Cx1 [6]: synergism
- CA-SFM Interpretation ([7]; Cc CA-SFM 2011): Susceptible
- EUCAST Interpretation ([7]; Cc EUCAST 2011): Susceptible
- Results ([7]; Table D1, from MIC): Susceptible
- Diameter [8]: 28 mm
- Results ([8]; from diameter, against Dmin Dmax): Susceptible

From US20140066365A1, “USE OF CALIXARENES ASSOCIATED WITH AN ANTIBIOTIC IN THE TREATMENT OF BACTERIAL INFECTIONS” (priority 2011, published 2014)
